For 42 molecules, IC50 results are on record in US10160748B2 (AbbVie Inc., priority 2015, dated 2018).

Where only a bound is given, the exact number is not on record here.

The target of this assay is TNFα trimer (Homo sapiens, UniProt P01375). Kind of assay: TNFα FP Competitive Binding Assay. The following applies: FP binding assay; 20 nM TNFα trimer, 1 nM OregonGreen488 probe; read-out: TNF IC50. The method, then:
TNFα FP Competitive Binding Assay
• 1. Assay Buffer: Prepare 1× Assay Buffer (Water with 47 mM HEPES, 47 mM NaCl, 0.9 mM EDTA, 0.0071% Triton X-100) by adding 25 mL of 1 M HEPES, 5 mL of 5 M NaCl, 1 mL of 0.5 M EDTA, and 375 μL of a 10% Triton X-100 stock to a fresh 500 mL bottle of water. • 2. Assay Mixture: Prepare fresh Assay Mixture containing 20 nM TNFα trimer (60 nM protein) and 1 nM 2′,7′-difluoro-3′,6′-dihydroxy-N-(2-(2-(2-((4-(isoquinolin-8-yl)-3-(4-(isoquinolin-8-yl)phenethoxy)benzyl)oxy)ethoxy)ethoxy)ethyl)-3-oxo-3H-spiro[isobenzofuran-1,9′-xanthene]-5-carboxamide probe in 1× Assay Buffer. Compound Plate Preparation Manual 12-Point 1:3 Dilution Plates: (384 Well Polypropylene Plates)
Top concentration of compounds, 10 mM in DMSO, dispensed in rows A-O in columns 1 and 13. Compounds are serially diluted 1:3 with DMSO in columns 2-12 or 14-24 using a 16-channel Matrix pipettor. Plates stored at −20° C.
Discovery Preps 12-Point 1:3 Dilution Plates: (384 Well Assay Plates)
Top concentration, 5 mM in DMSO, of compounds placed in rows A-O in columns 1 and 13. Compounds are serially diluted 1:3 with DMSO in columns 2-12 or 14-24. Compound solutions are dispensed into replicate assay plates at 410 nL per well. Plates stored at 4° C.
TNFα FP Competitive Binding Assay Protocol
• 1. Compound plates warmed to rt. • 2. Fresh Assay Mixture is prepared. • 3. Assay Mixture (20 μL) is dispensed each well of 384 assay plates using a Thermo Multidrop Combi or 16-channel Matrix pipettor. If Manual 12-point 1:3 Dilution Plates are to be tested, Assay Mix is dispensed into empty plates. Discovery Preps 12-point 1:3 Dilution Plates already contain 410 nL compound solution in DMSO. • 4. For Manual 12-point 1:3 Dilution Plates, 0.7 μL is manually transferred using a 16-channel Matrix pipettor to replicate assay plates containing 20 μL Assay Mixture for a final top compound concentration of 338 μM (3.4% DMSO). • 5. For Discovery Preps 12-point 1:3 Dilution Plates, 20 μL Assay Mixture added the 410 nL compound solution already in the plates yields a final top compound concentration of 100 μM (2.0% DMSO). • 6. Background subtraction controls are wells P1-P8 containing only Assay Buffer. The low % inhibition controls are wells P9-P16 containing only Assay Mix. The high % inhibition are wells P17-P24 containing only 1 nM 2′,7′-difluoro-3′,6′-dihydroxy-N-(2-(2-(2-((4-(isoquinolin-8-yl)-3-(4-(isoquinolin-8-yl)phenethoxy)benzyl)oxy)ethoxy)ethoxy)ethyl)-3-oxo-3H-spiro[isobenzofuran-1,9′-xanthene]-5-carboxamide probe in 1× Assay Buffer. • 7. Plates are incubated at rt for 18-24 h in 37° C. incubator (CO2 is off). • 8. Prior to reading the assay, the plates are placed in a dark cabinet to equilibrate at rt for one hour. • 9. Background-subtracted fluorescence polarization (mP) is measured using a PerkinElmer Envision plate reader. • 10. Raw data is entered into Assay Explorer and dose-response curves are generated using a variable slope curve. Supplies, Materials, and Reagents

TNFα trimer, sequence (P01375 77-233 limits assumed): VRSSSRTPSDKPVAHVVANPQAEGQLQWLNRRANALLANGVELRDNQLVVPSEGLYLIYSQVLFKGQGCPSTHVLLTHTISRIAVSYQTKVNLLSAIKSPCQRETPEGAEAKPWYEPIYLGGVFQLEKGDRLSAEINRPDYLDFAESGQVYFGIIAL

As for `Cn1c(=O)c2ccc(-c3cnc(N4CCC(C(=O)O)CC4)nc3)cc2n1Cc1cc(Cl)ccc1Cl` [Example 7.2], the IC50 (commonly the midpoint of a concentration-inhibition curve) lay within 1000 to 10000 nM.

Regarding `Cn1c(=O)c2ccc(-c3cnc(N4CCOCC4)nc3)cc2n1Cc1c(Cl)cccc1Cl` [Example 8.1], the half-inhibitory concentration (IC50) was in the range of 1000 to 10000 nM.

On to `Cn1c(=O)c2ccc(-c3cnc(N4CCNC(=O)C4)nc3)cc2n1Cc1c(Cl)cccc1Cl` [Example 8.2], for which the IC50 fell in the range of 1000 to 10000 nM.

Consider `Cn1c(=O)c2ccc(-c3cnc(N4CCOCC4)nc3)cc2n1Cc1cc(CO)ccc1OC(F)F` [Example 9, 1-(2-(Difluoromethoxy)-5-(hydroxymethyl)benzyl)-2-methyl-6-(2-morpholinopyrimidin-5-yl)-1H-indazol-3(2H)-one], for which the IC50 was below 1000 nM.

As for `O=c1[nH]n(Cc2cc(Cl)ccc2Cl)c2cc(-c3cnc(N4CCOCC4)nc3)ccc12` [Example 9.1], the concentration for half-maximal inhibition (IC50) is above 10000 nM.

On to `CCn1c(=O)c2ccc(-c3cnc(N4CCOCC4)nc3)cc2n1Cc1ccccc1OC(F)F` [Example 10, 1-(2-(Difluoromethoxy)benzyl)-2-ethyl-6-(2-morpholinopyrimidin-5-yl)-1H-indazol-3(2H)-one], for which the IC50 lay in the range of 1000 to 10000 nM.

For the molecule `Cn1c(=O)c2ccc(-c3cnc(C(C)(C)O)nc3)cc2n1Cc1ccccc1OC(F)F` [Example 10.1], the concentration for half-maximal inhibition (IC50) is 1000 to 10000 nM.

In the case of `Cn1c(=O)c2ccc(-c3cnc(N4CCOCC4)cn3)cc2n1Cc1ccccc1OC(F)F` [Example 10.2], the IC50 fell in the range of 1000 to 10000 nM.

Turning to `Cn1c(=O)c2ccc(-c3cnc(N4CCC(C(=O)O)CC4)cn3)cc2n1Cc1ccccc1OC(F)F` [Example 10.3], the IC50 was above 10000 nM.

Regarding `CC(Nc1ncc(-c2ccc3c(=O)n(C)n(Cc4ccccc4OC(F)F)c3c2)cn1)C(N)=O` (stereo not drawn) [Example 10.4], the IC50 fell in the range of 1000 to 10000 nM.

`Cn1c(=O)c2ccc(-c3nsc(N4CCOCC4)n3)cc2n1Cc1ccccc1OC(F)F` [Example 10.5]: the IC50 was above 10000 nM.

As for `C[C@@H]1CN(c2ncc(-c3ccc4c(=O)n(C)n(Cc5ccccc5OC(F)F)c4c3)cn2)CCN1C(=O)CO` [Example 10.6, (R)-1-(2-(difluoromethoxy)benzyl)-6-(2-(4-(2-hydroxyacetyl)-3-methylpiperazin-1-yl)pyrimidin-5-yl)-2-methyl-1H-indazol-3(2H)-one], the concentration for half-maximal inhibition (IC50) is below 1000 nM.

For `C[C@@H]1C[C@H](O)CCN1c1ncc(-c2ccc3c(=O)n(C)n(Cc4ccccc4OC(F)F)c3c2)cn1` [Example 10.9], the IC50 is below 1000 nM.

For `Cc1nc(N2CCN(C(=O)CO)C[C@H]2C)ncc1-c1ccc2c(=O)n(C)n(Cc3ccccc3OC(F)F)c2c1` [Example 10.10], the IC50 was below 1000 nM.

With `Cn1c(=O)c2ccc(-c3ccnc(OC4CCOCC4)c3)cc2n1Cc1ccccc1OC(F)F` [Example 10.11], the IC50 is below 1000 nM.

For the molecule `CC(=O)N1CCC(Oc2cc(-c3ccc4c(=O)n(C)n(Cc5ccccc5OC(F)F)c4c3)ccn2)CC1` [Example 10.12], the IC50 fell in the range of 1000 to 10000 nM.

Regarding `Cn1c(=O)c2ccc(-c3ccnc(OC4CCCOC4)c3)cc2n1Cc1ccccc1OC(F)F` (stereo not drawn) [Example 10.13], the IC50 lay within 1000 to 10000 nM.

For the molecule `C[C@@H]1CN(C(=O)CO)CCN1c1ncc(-c2ccc3c(=O)n(C)n(Cc4ccccc4OC(F)F)c3c2)cn1` [Example 10.14], the IC50 was below 1000 nM.

In the case of `CN(C)c1ncc(-c2ccc3c(=O)n(C)n(Cc4ccccc4OC(F)F)c3c2)cn1` [Example 10.15], the IC50 was 1000 to 10000 nM.

Regarding `CC(=O)N1CCN(c2ncc(-c3ccc4c(=O)n(C)n(Cc5ccccc5OC(F)F)c4c3)cn2)[C@H](C)C1` [Example 10.16], the half-maximal inhibitory concentration (IC50) was below 1000 nM.

Take `C[C@H]1CN(C(=O)CO)CCN1c1ncc(-c2ccc3c(=O)n(C)n(Cc4ccccc4OC(F)F)c3c2)cn1` [Example 10.17]: the IC50 was below 1000 nM.

Take `O=c1c2ccc(-c3cnc(N4CCOCC4)nc3)cc2n(Cc2ccccc2OC(F)F)n1C1CC1` [Example 11, 2-Cyclopropyl-1-(2-(difluoromethoxy)benzyl)-6-(2-morpholinopyrimidin-5-yl)-1H-indazol-3(2H)-one]: the IC50 was in the range of 1000 to 10000 nM.

With `Cn1c(=O)c2ccc(-c3ccnc(N4CCOCC4)c3)cc2n1Cc1cccc(F)c1` [Example 11.1], the IC50 is above 10000 nM.

On to `Cn1c(=O)c2ccc(-c3cnn(C4CCOCC4)c3)cc2n1Cc1cccc(F)c1` [Example 11.2], for which the IC50 is above 10000 nM.

For the molecule `Cn1c(=O)c2ccc(-c3cnc(CC4(C)COC4)nc3)cc2n1Cc1ccccc1OC(F)F` [Example 12, 1-(2-(Difluoromethoxy)benzyl)-2-methyl-6-(2-((3-methyloxetan-3-yl)methyl)pyrimidin-5-yl)-1H-indazol-3(2H)-one], the 50% inhibitory concentration (IC50) was 1000 to 10000 nM.

With `Cn1c(=O)c2ccc(-c3cnc(N4CCOCC4)nc3)cc2n1-c1cc(Cl)ccc1Cl` [Example 12.1], the IC50 is 1000 to 10000 nM.

For the molecule `Cn1c(=O)c2ccc(-c3nc(N4CCOCC4)no3)cc2n1Cc1ccccc1OC(F)F` [Example 13, 1-(2-(Difluoromethoxy)benzyl)-2-methyl-6-(3-morpholino-1,2,4-oxadiazol-5-yl)-1H-indazol-3(2H)-one], the IC50 was in the range of 1000 to 10000 nM.

Turning to `Cc1cc2c(=O)n(C)n(Cc3ccccc3OC(F)F)c2cc1-c1cnc(N2CCOCC2)nc1` [Example 13.1], the IC50 is below 1000 nM.

With `Cc1cc2c(=O)n(C)n(Cc3ccccc3OC(F)F)c2cc1-c1cnc(N2CCNC(=O)C2)nc1` [Example 13.2], the IC50 was in the range of 1000 to 10000 nM.

For `Cc1cc2c(=O)n(C)n(Cc3ccccc3OC(F)F)c2cc1-c1cnc(N2CCC(C(=O)O)CC2)nc1` [Example 13.3], the IC50 lay in the range of 1000 to 10000 nM.

As to `Cn1c(=O)c2ncc(-c3cnc(N4CCOCC4)nc3)cc2n1Cc1ccccc1OC(F)F` [Example 14, 1-(2-(Difluoromethoxy)benzyl)-2-methyl-6-(2-morpholinopyrimidin-5-yl)-1H-pyrazolo[4,3-b]pyridin-3(2H)-one], the IC50 was above 10000 nM.

`Cn1c(=O)c2ccc(-c3ccc(N4CCNCC4)nc3)cc2n1Cc1ccccc1OC(F)F` [Example 14.1]: the IC50 was 1000 to 10000 nM.

Regarding `Cn1c(=O)c2ccc(-c3cnc(N4CCNCC4)nc3)cc2n1Cc1cc(Cl)ccc1Cl` [Example 14.2], the IC50 fell in the range of 1000 to 10000 nM.

As for `Cn1c(=O)c2ccc(-c3cnc(C4(O)CCN(C(=O)CN)CC4)nc3)cc2n1Cc1ccccc1OC(F)F` [Example 14.3], the IC50 was in the range of 1000 to 10000 nM.

Consider `CC(C)[C@H](N)C(=O)OCc1ccc(OC(F)F)c(Cn2c3cc(-c4cnc(N5CCN6C(=O)OC[C@@H]6C5)nc4)ccc3c(=O)n2C)c1` [Example 14.4], for which the IC50 was in the range of 1000 to 10000 nM.

On to `Cc1ccc(OC(F)F)c(Cn2c3cc(-c4cnc(N5CCN[C@H](C)C5)nc4)ccc3c(=O)n2C)c1` [Example 14.5, (R)-1-(2-(difluoromethoxy)-5-methylbenzyl)-2-methyl-6-(2-(3-methylpiperazin-1-yl)pyrimidin-5-yl)-1H-indazol-3(2H)-one], for which the 50% inhibitory concentration (IC50) fell in the range of 1000 to 10000 nM.

For `Cc1ccc(OC(F)F)c(Cn2c3cc(-c4cnc(N5CCN(C(=O)[C@H](C)N)[C@@H](C)C5)nc4)ccc3c(=O)n2C)c1` [Example 14.6], the IC50 was below 1000 nM.

`Cc1ccc(OC(F)F)c(Cn2c3cc(-c4cnc(N5CCN(C(=O)CN)[C@@H](C)C5)nc4)ccc3c(=O)n2C)c1` [Example 14.7]: the IC50 is below 1000 nM.

For the molecule `C[C@@H]1CN(c2ncc(-c3ccc4c(=O)n(C)n(Cc5ccccc5OC(F)F)c4c3)cn2)CCN1C(=O)C(O)CN` (stereo partly drawn) [Example 14.8], the IC50 is below 1000 nM.

In the case of `Cc1ccc(OC(F)F)c(Cn2c3cc(-c4cnc(N5CCN(C(=O)C(O)CN)[C@H](C)C5)nc4)ccc3c(=O)n2C)c1` (stereo partly drawn) [Example 14.9], the IC50 is below 1000 nM.

As for `Cc1ccc(OC(F)F)c(Cn2c3cc(-c4cnc(N5CCN(C(=O)CN)[C@H](C)C5)nc4)ccc3c(=O)n2C)c1` [Example 14.10], the IC50 was below 1000 nM.

On to `Cc1ccc(OC(F)F)c(Cn2c3cc(-c4cnc(N5CCN(C(=O)[C@H](C)N)[C@H](C)C5)nc4)ccc3c(=O)n2C)c1` [Example 14.11], for which the IC50 was below 1000 nM.
